Experimental data published in patent publication US9770026B2, “Substituted pyrimidine compound and uses thereof” (Shenyang Sinochem Agrochemicals R&D Co., Ltd., priority 2012, dated 2017).

What follows are molecules tested on Green peach aphids (Myzus Persicae Sulzer) (assay: bioactivity test against green peach aphid, airbrush foliar spray). Conditions: 1.25 mg/L; contrastive test.
Format: in vivo
Protocol: (§1) Compounds were dissolved in mixed solvent (acetone:methanol=1:1), and diluted to required concentration with water containing 0.1% of tween 80.
(§2) Diamond back moth, armyworm, peach aphid and carmine spider mite were used as targets and the method of spraying by airbrush was used for determination of insecticidal biassays.
Method: Filter papers were put in culture dishes (Diameter=6 cm), and water was dripped on filter papers for preserving moisture. Green peach aphids (Myzus Persicae Sulzer) were maintained on cabbage. Leaves (Diameter=3 cm) of approximately 15-30 aphids were put in the culture dishes. Bioactivity tests were used the method of Airbrush Foliar Spray, pressure=10 psi (0.7 kg/cm2), spray volume=0.5 mL. The studies were conducted at […] 25±1 C in incubator cabinets with 60±5% RH. Survey the survival aphids after 48 hrs and calculate the death rates.

| SMILES | Insecticidal activity against peach aphid (%) |
| --- | --- |
| CC(F)c1ncnc(NCCc2ccc(Oc3ncc(C(F)(F)F)cc3Cl)cc2)c1Cl (stereo not drawn) [CK2, reference compound] | 0 |

Same assay, conditions: 2.5 mg/L; contrastive test

| SMILES | Insecticidal activity against peach aphid (%) |
| --- | --- |
| CC(F)c1ncnc(NCCc2ccc(Oc3ncc(C(F)(F)F)cc3Cl)cc2)c1Cl (stereo not drawn) [CK2, reference compound] | 23 |

Same assay, conditions: 5 mg/L; contrastive test

| SMILES | Insecticidal activity against peach aphid (%) |
| --- | --- |
| CC(F)c1ncnc(NCCc2ccc(Oc3ncc(C(F)(F)F)cc3Cl)cc2)c1Cl (stereo not drawn) [CK2, reference compound] | 37 |

Same assay, conditions: 10 mg/L; contrastive test

| SMILES | Insecticidal activity against peach aphid (%) |
| --- | --- |
| CC(F)c1ncnc(NCCc2ccc(Oc3ncc(C(F)(F)F)cc3Cl)cc2)c1Cl (stereo not drawn) [CK2, reference compound] | 95 |
| CCc1ncnc(NCCc2ccc(Oc3ccc(C(F)(F)F)cc3Cl)nc2)c1Cl [III-301] | 100 |

Same assay, conditions: 100 mg/L; contrastive test

| SMILES | Insecticidal activity against peach aphid (%) |
| --- | --- |
| CC(F)c1ncnc(NCCc2ccc(Oc3ncc(C(F)(F)F)cc3Cl)cc2)c1Cl (stereo not drawn) [CK2, reference compound] | 100 |
| CCc1ncnc(NCCc2ccc(Oc3ccc(C(F)(F)F)cc3Cl)nc2)c1Cl [III-301] | 100 |

Same assay, conditions: 600 mg/L; contrastive test

| SMILES | Insecticidal activity against peach aphid (%) |
| --- | --- |
| CC(F)c1ncnc(NCCc2ccc(Oc3ncc(C(F)(F)F)cc3Cl)cc2)c1Cl (stereo not drawn) [CK2, reference compound] | 100 |
| CCc1ncnc(NCCc2ccc(Oc3ccc(C(F)(F)F)cc3Cl)nc2)c1Cl [III-301] | 100 |

Same assay, conditions: 10 ppm, death rate after 48 hrs

| SMILES | control (test results against green peach aphid) [%] |
| --- | --- |
| CCc1ncnc(NCCc2ccc(Oc3ccc(C(F)(F)F)cc3Cl)nc2)c1Cl [III-301] | 100 |

Same assay, conditions: 100 ppm, death rate after 48 hrs

| SMILES | control (test results against green peach aphid) [%] |
| --- | --- |
| CCc1ncnc(NCCc2ccc(Oc3ccc(C(F)(F)F)cc3Cl)nc2)c1Cl [III-301] | 100 |

Same assay, conditions: 600 ppm, death rate after 48 hrs

| SMILES | control (test results against green peach aphid) [%] |
| --- | --- |
| CCc1ncnc(NCCc2ccc(Oc3ccc(C(F)(F)F)cc3Cl)nc2)c1Cl [III-301] | 100 |

Each molecule was assayed on carmine spider mite (assay: bioactivity test against carmine spider mite, airbrush spray). Conditions: 10 mg/L; contrastive test.
Format: in vivo
Protocol: as §1, §2
The method: Broadbean shoots with two true leaves in pot were taken, the healthy adults of carmine spider mite were inoculated to the leaves. The adults were counted and then sprayed with airbrush at the pressure of 0.7 kg/cm^2 and at dose of 0.5 ml. 3 replicates were set for each treatment. And then they were maintained in standard observation room. Scores were conducted and mortalities were calculated after 72 hrs.

| SMILES | Insecticidal activity against carmine spider mite (% ) [%] |
| --- | --- |
| CC(F)c1ncnc(NCCc2ccc(Oc3ncc(C(F)(F)F)cc3Cl)cc2)c1Cl (stereo not drawn) [CK2, reference compound] | 32 |

Same assay, conditions: 100 mg/L; contrastive test

| SMILES | Insecticidal activity against carmine spider mite (% ) [%] |
| --- | --- |
| CC(F)c1ncnc(NCCc2ccc(Oc3ncc(C(F)(F)F)cc3Cl)cc2)c1Cl (stereo not drawn) [CK2, reference compound] | 100 |

Same assay, conditions: 600 mg/L; contrastive test

| SMILES | Insecticidal activity against carmine spider mite (% ) [%] |
| --- | --- |
| CC(F)c1ncnc(NCCc2ccc(Oc3ncc(C(F)(F)F)cc3Cl)cc2)c1Cl (stereo not drawn) [CK2, reference compound] | 100 |

Each molecule was assayed on corn rust (assay: protectant activity in vivo against corn rust). Conditions: 6.25 mg/L; protectant activity.

| SMILES | control effect against corn rust (%) |
| --- | --- |
| CC(F)c1ncnc(NCCc2ccc(Oc3ncc(C(F)(F)F)cc3Cl)cc2)c1Cl (stereo not drawn) [CK2, reference compound] | 85 |

Same assay, conditions: 25 mg/L; protectant activity

| SMILES | control effect against corn rust (%) |
| --- | --- |
| CC(F)c1ncnc(NCCc2ccc(Oc3ncc(C(F)(F)F)cc3Cl)cc2)c1Cl (stereo not drawn) [CK2, reference compound] | 100 |

Same assay, conditions: 100 mg/L; protectant activity

| SMILES | control effect against corn rust (%) |
| --- | --- |
| CC(F)c1ncnc(NCCc2ccc(Oc3ncc(C(F)(F)F)cc3Cl)cc2)c1Cl (stereo not drawn) [CK2, reference compound] | 100 |

Same assay, conditions: 400 mg/L; protectant activity

| SMILES | control effect against corn rust (%) |
| --- | --- |
| CC(F)c1ncnc(NCCc2ccc(Oc3ncc(C(F)(F)F)cc3Cl)cc2)c1Cl (stereo not drawn) [CK2, reference compound] | 100 |

Same assay, conditions: 100 ppm

| SMILES | protectant activity against corn rust in vivo [%] |
| --- | --- |
| CCc1ncnc(NCCc2ccc(Oc3ccc(C(F)(F)F)cc3Cl)nc2)c1Cl [III-301] | 100 |

Same assay, conditions: 400 ppm

| SMILES | protectant activity against corn rust in vivo [%] |
| --- | --- |
| CCc1ncnc(NCCc2ccc(Oc3ccc(C(F)(F)F)cc3Cl)nc2)c1Cl [III-301] | 100 |

What follows are molecules tested on wheat powdery mildew (assay: protectant activity in vivo against wheat powdery mildew). Conditions: 6.25 mg/L; protectant activity.

| SMILES | control effect against wheat powdery mildew (%) |
| --- | --- |
| CC(F)c1ncnc(NCCc2ccc(Oc3ncc(C(F)(F)F)cc3Cl)cc2)c1Cl (stereo not drawn) [CK2, reference compound] | 0 |

Same assay, conditions: 25 mg/L; protectant activity

| SMILES | control effect against wheat powdery mildew (%) |
| --- | --- |
| CC(F)c1ncnc(NCCc2ccc(Oc3ncc(C(F)(F)F)cc3Cl)cc2)c1Cl (stereo not drawn) [CK2, reference compound] | 80 |

Same assay, conditions: 100 mg/L; protectant activity

| SMILES | control effect against wheat powdery mildew (%) |
| --- | --- |
| CC(F)c1ncnc(NCCc2ccc(Oc3ncc(C(F)(F)F)cc3Cl)cc2)c1Cl (stereo not drawn) [CK2, reference compound] | 100 |

Same assay, conditions: 400 mg/L; protectant activity

| SMILES | control effect against wheat powdery mildew (%) |
| --- | --- |
| CC(F)c1ncnc(NCCc2ccc(Oc3ncc(C(F)(F)F)cc3Cl)cc2)c1Cl (stereo not drawn) [CK2, reference compound] | 100 |

Same assay, conditions: 100 ppm

| SMILES | protectant activity against wheat powdery mildew in vivo [%] |
| --- | --- |
| CCc1ncnc(NCCc2ccc(Oc3ccc(C(F)(F)F)cc3Cl)nc2)c1Cl [III-301] | 100 |

Same assay, conditions: 400 ppm

| SMILES | protectant activity against wheat powdery mildew in vivo [%] |
| --- | --- |
| CCc1ncnc(NCCc2ccc(Oc3ccc(C(F)(F)F)cc3Cl)nc2)c1Cl [III-301] | 100 |

The molecules below were run on cucumber downy mildew (assay: protectant activity in vivo against cucumber downy mildew). Conditions: 6.25 mg/L; protectant activity.

| SMILES | control effect against cucumber downy mildew (%) |
| --- | --- |
| CCc1ncnc(NCCc2ccc(Oc3ccc(C(F)(F)F)cc3Cl)nc2)c1Cl [III-301] | 100 |

Same assay, conditions: 12.5 mg/L; protectant activity

| SMILES | control effect against cucumber downy mildew (%) |
| --- | --- |
| CCc1ncnc(NCCc2ccc(Oc3ccc(C(F)(F)F)cc3Cl)nc2)c1Cl [III-301] | 100 |

Same assay, conditions: 25 mg/L; protectant activity

| SMILES | control effect against cucumber downy mildew (%) |
| --- | --- |
| CCc1ncnc(NCCc2ccc(Oc3ccc(C(F)(F)F)cc3Cl)nc2)c1Cl [III-301] | 100 |

Same assay, conditions: 50 mg/L; protectant activity

| SMILES | control effect against cucumber downy mildew (%) |
| --- | --- |
| CCc1ncnc(NCCc2ccc(Oc3ccc(C(F)(F)F)cc3Cl)nc2)c1Cl [III-301] | 100 |

Same assay, conditions: 100 mg/L; protectant activity

| SMILES | control effect against cucumber downy mildew (%) |
| --- | --- |
| CCc1ncnc(NCCc2ccc(Oc3ccc(C(F)(F)F)cc3Cl)nc2)c1Cl [III-301] | 100 |

Same assay, conditions: 400 mg/L; protectant activity

| SMILES | control effect against cucumber downy mildew (%) |
| --- | --- |
| CCc1ncnc(NCCc2ccc(Oc3ccc(C(F)(F)F)cc3Cl)nc2)c1Cl [III-301] | 100 |

Same assay, conditions: 6.25 ppm

| SMILES | protectant activity against cucumber downy mildew in vivo [%] |
| --- | --- |
| CCc1ncnc(NCCc2ccc(Oc3ccc(C(F)(F)F)cc3Cl)nc2)c1Cl [III-301] | 100 |

Same assay, conditions: 12.5 ppm

| SMILES | protectant activity against cucumber downy mildew in vivo [%] |
| --- | --- |
| CCc1ncnc(NCCc2ccc(Oc3ccc(C(F)(F)F)cc3Cl)nc2)c1Cl [III-301] | 100 |

Same assay, conditions: 25 ppm

| SMILES | protectant activity against cucumber downy mildew in vivo [%] |
| --- | --- |
| CCc1ncnc(NCCc2ccc(Oc3ccc(C(F)(F)F)cc3Cl)nc2)c1Cl [III-301] | 100 |

Same assay, conditions: 50 ppm

| SMILES | protectant activity against cucumber downy mildew in vivo [%] |
| --- | --- |
| CCc1ncnc(NCCc2ccc(Oc3ccc(C(F)(F)F)cc3Cl)nc2)c1Cl [III-301] | 100 |

Same assay, conditions: 100 ppm

| SMILES | protectant activity against cucumber downy mildew in vivo [%] |
| --- | --- |
| CCc1ncnc(NCCc2ccc(Oc3ccc(C(F)(F)F)cc3Cl)nc2)c1Cl [III-301] | 100 |

Same assay, conditions: 400 ppm

| SMILES | protectant activity against cucumber downy mildew in vivo [%] |
| --- | --- |
| CCc1ncnc(NCCc2ccc(Oc3ccc(C(F)(F)F)cc3Cl)nc2)c1Cl [III-301] | 100 |
